Assay results from ChEMBL document CHEMBL3885881, “DrugMatrix”.

Species: Rattus norvegicus
Assay: DrugMatrix - Regimen: Daily Repeat
Assay type: toxicity, organism-based, Sprague-Dawley
Parameters: regimen Daily Repeat, gender Male, age 6-8 weeks
Details: in vivo, po, 75 mg/kg, route oral GAVAGE, dose level High, vehicle .5 % CMC; for ABSOLUTE BASOPHIL / ABSOLUTE EOSINOPHIL / ABSOLUTE LYMPHOCYTE / ABSOLUTE MONOCYTE / ABSOLUTE SEGMENTED NEUTROPHIL / BASOPHIL / EOSINOPHIL / ERYTHROCYTE COUNT / HEMATOCRIT / HEMOGLOBIN / LEUKOCYTE COUNT / LYMPHOCYTE / MEAN CORPUSCULAR HEMOGLOBIN / MEAN CORPUSCULAR HEMOGLOBIN CONCENTRATION / MEAN CORPUSCULAR VOLUME / MONOCYTE / NEUTROPHIL / NUCLEATED RED BLOOD CELLS / PLATELET COUNT: tissue Blood
[1] = 72 h, tissue Plasma, time 3 day
[2] = 120 h, tissue Plasma, time 5 day

## COc1ccc(C2CNC(=O)C2)cc1OC1CCCC1 (stereo not drawn) [ROLIPRAM]
72 h, time 3 day
  ABSOLUTE BASOPHIL: 0 CELLS/uL
  ABSOLUTE EOSINOPHIL: 174 CELLS/uL
  ABSOLUTE LYMPHOCYTE: 10500 CELLS/uL
  ABSOLUTE MONOCYTE: 432 CELLS/uL
  ABSOLUTE SEGMENTED NEUTROPHIL: 3427.33 CELLS/uL
  BASOPHIL: 0%
  EOSINOPHIL: 1%
  ERYTHROCYTE COUNT: 6.02 x10E6/uL
  HEMATOCRIT: 37.7%
  HEMOGLOBIN: 13.93 G/DL
  LEUKOCYTE COUNT: 14.53 x10E3/uL
  LYMPHOCYTE: 73.33%
  MEAN CORPUSCULAR HEMOGLOBIN: 23.2 pg
  MEAN CORPUSCULAR HEMOGLOBIN CONCENTRATION: 36.97 G/DL
  MEAN CORPUSCULAR VOLUME: 62.73 fL
  MONOCYTE: 2.67%
  NEUTROPHIL: 23%
  NUCLEATED RED BLOOD CELLS: 0 /100WBC
  PLATELET COUNT: 1088.33 x10E3/uL
[1]
  ALANINE AMINOTRANSFERASE: 60.33 u/L
  ALBUMIN: 4.3 G/DL
  ALKALINE PHOSPHATASE: 331.67 u/L
  ASPARTATE AMINOTRANSFERASE: 73.33 u/L
  BLOOD UREA NITROGEN: 14.67 mg/dL
  CARBON DIOXIDE: 28 mmol/L
  CHLORIDE: 104 MEQ/L
  CHOLESTEROL: 63.33 mg/dL
  CREATININE: 0.17 mg/dL
  GLUCOSE: 170.67 mg/dL
  LACTATE DEHYDROGENASE: 116 u/L
  LIPASE: 10 u/L
  PHOSPHORUS: 11 mg/dL
  POTASSIUM: 6.1 MEQ/L
  SODIUM: 147.83 MEQ/L
  TOTAL BILIRUBIN: 0.1 mg/dL
  TOTAL PROTEIN: 6.23 G/DL
  URIC ACID: 1.73 mg/dL
120 h, time 5 day
  ABSOLUTE BASOPHIL: 0 CELLS/uL
  ABSOLUTE EOSINOPHIL: 142.67 CELLS/uL
  ABSOLUTE LYMPHOCYTE: 8076.67 CELLS/uL
  ABSOLUTE MONOCYTE: 387 CELLS/uL
  ABSOLUTE SEGMENTED NEUTROPHIL: 1493.67 CELLS/uL
  BASOPHIL: 0%
  EOSINOPHIL: 1.33%
  ERYTHROCYTE COUNT: 6.66 x10E6/uL
  HEMATOCRIT: 40%
  HEMOGLOBIN: 14.37 G/DL
  LEUKOCYTE COUNT: 10.1 x10E3/uL
  LYMPHOCYTE: 81.33%
  MEAN CORPUSCULAR HEMOGLOBIN: 21.6 pg
  MEAN CORPUSCULAR HEMOGLOBIN CONCENTRATION: 35.93 G/DL
  MEAN CORPUSCULAR VOLUME: 60.07 fL
  MONOCYTE: 3.67%
  NEUTROPHIL: 13.67%
  NUCLEATED RED BLOOD CELLS: 0 /100WBC
  PLATELET COUNT: 1039 x10E3/uL
[2]
  ALANINE AMINOTRANSFERASE: 69.67 u/L
  ALBUMIN: 4.5 G/DL
  ALKALINE PHOSPHATASE: 284.67 u/L
  ASPARTATE AMINOTRANSFERASE: 99.67 u/L
  BLOOD UREA NITROGEN: 15.33 mg/dL
  CARBON DIOXIDE: 34.33 mmol/L
  CHLORIDE: 101.67 MEQ/L
  CHOLESTEROL: 82.67 mg/dL
  CREATININE: 0.18 mg/dL
  GLUCOSE: 127 mg/dL
  LACTATE DEHYDROGENASE: 138.67 u/L
  LIPASE: 8.67 u/L
  PHOSPHORUS: 9.93 mg/dL
  POTASSIUM: 6.21 MEQ/L
  SODIUM: 149.7 MEQ/L
  TOTAL BILIRUBIN: 0.13 mg/dL
  TOTAL PROTEIN: 6.8 G/DL
